Test results: patent US20050267128A1, “Compounds, compositions and methods of modulating the mitochondrial apoptosis-induced channel (MAC)” (priority 2004, published 2005)
“Also recorded” adds a separate entry of the source.

Legend:
[1] = tested on: mitochondrial apoptosis-induced channel (MAC); assay: Patch clamp of MAC in proteoliposomes containing mitochondrial outer membranes of apoptotic FL5.12 cells; assay type: biochemical, mouse; details: for voltage dependence of MAC blockade: current voltage curves between +40 mV and −40 mV; for Hill coefficient of MAC blockade / IC50 / IC50 for MAC, stated in words: patch clamp, proteoliposomes; for IC50: 150 mM KCl 5 mM HEPES pH 7.4, read-out: IC50 for blockade of MAC (inhibition of conductance); for reversibility of MAC blockade on removal by perfusion of the bath: wash out with 150 mM KCl 5 mM HEPES
Experimental: Hematopoietic FL5.12 cells are a mouse leukemia cell line that enters apoptosis after withdrawal of the growth factor interleukin-3 (IL-3) (Gross, A., Jockel, J., Wei, M. C. and Korsmeyer, S. J. (1998). Parental FL5.12 cells were cultured as previously described (Gross, A., Jockel, J., Wei, M. C. and Korsmeyer, S. J. (1998) EMBO J. 17, 3878-85) in Iscove's Modified Eagle Media (IMEM), 10% Fetal Bovine Serum, 10% WEHI-3B supplement (filtered supernatant of WEHI-3B cells secreting IL-3). Cultures were kept below 1.5 million cells/ml. Cells were washed three times in media without IL-3 (WEHI supplement) to induce apoptosis twelve hours prior to the isolation of mitochondria (Zamzami, N., Susin, S. A., Marchetti, P., Hirsch, T., Gomez-Monterrey, I., Castedo, M. and Kroemer, G. (1996).
Mitochondria were isolated from 2-15 g of FL5.12 cells as previously described for outer membrane preparations (Guo, L., Pietkiewicz, D., Pavlov, E. V., Kasianowicz, J. J., Korsmeyer, S. J., Antonsson, B. and Kinnally, K. W. (2004) American Journal of Physiology, Cell Biology. 286, C1109-17; Pavlov, E. V., Priault, M., Pietkiewicz, D., Cheng, E.H.-Y., Antonsson, B., Manon, S., Korsmeyer, S. J., Mannella, C. A. and Kinnally, K. W. (2001) J. Cell Biology 155, 725-732). Outer membranes were stripped from the inner membranes by French pressing isolated mitochondria using modifications of the method of Decker and Greenawalt (Decker, G. L. and Greenawalt, J. W. (1977) J. Ultrastr. Res. 59, 44-56) as described in (Pavlov, E. V., Priault, M., Pietkiewicz, D., Cheng, E.H.-Y., Antonsson, B., Manon, S., Korsmeyer, S. J., Mannella, C. A. and Kinnally, K. W. (2001) J. Cell Biology 155, 725-732). French pressing was done at 2000 PSI in 460 mM Mannitol 140 mM Sucrose 2 mM EDTA 10 mM HEPES pH 7.4. The pressed suspension was diluted 1:1 with 230 mM Mannitol 70 mM sucrose 1 mM EDTA 5 mM HEPES pH 7.4 and centrifuged at 10,000 rpm (12,000 g) for 10 minutes. Outer membranes were separated from inner membranes as described by Mannella (Mannella, C. A. (1982) J. Cell Biol. 94, 680-687).

[2] = tested on: MAC from apoptotic HeLa cells; assay: Blockade of MAC in partially purified fractions from apoptotic HeLa cells treated with staurosporine; assay type: biochemical; details: unpublished results
[3] = tested on: permeability transition pore (PTP); details: mitochondria; cited from earlier work
[4] = tested on: neurons; details: cited from earlier work

## CCCCOc1cc(C(=O)NCCN(CC)CC)c2ccccc2n1 [dibucaine]
[1]; 50 μM, +20 mV
  current flow through MAC upon perfusion of the bath: rapidly reduced
[1]
  voltage dependence of MAC blockade: not voltage dependent
  Hill coefficient of MAC blockade: 1.3±0.1
  IC50: 39 µM
  reversibility of MAC blockade on removal by perfusion of the bath: reversible
[2]
  blockade of MAC compared with FL5.12 preparation: similar
[3]
  concentration that blocks the PTP: 50 to 100 µM
[4]
  concentration that blocks mitochondrial depolarization induced by glutamate: 50 to 100 µM

## CCN(CC)CC(=O)Nc1c(C)cccc1C [lidocaine]
[1]; 300 μM
  effect on MAC activity: little effect
[1]; no concentration stated (FIG. 3B)
  effect on MAC activity: limited effects; also recorded: no effect
[1]
  IC50 for MAC, stated in words: mM to M

## CC(C)NCC(O)COc1cccc2ccccc12 (stereo not drawn) [propranolol]
[1]
  voltage dependence of MAC blockade: not voltage dependent
  Hill coefficient of MAC blockade: 2.1±0.2
  reversibility of MAC blockade on removal by perfusion of the bath: not reversible

## CN1CCN(CCCN2c3ccccc3Sc3ccc(C(F)(F)F)cc32)CC1 [trifluoperazine]
[1]
  voltage dependence of MAC blockade: not voltage dependent
  Hill coefficient of MAC blockade: 1.4±0.2
  IC50 for MAC, stated in words: high nanomolar range
  IC50: 0.9 µM
  reversibility of MAC blockade on removal by perfusion of the bath: not reversible
[3]
  concentration that blocks the PTP: 10 to 20 µM
[4]
  concentration that blocks mitochondrial depolarization induced by glutamate: 10 to 20 µM
